Assay results: US20240390301A1, “COMBINATIONS OF PERIPHERAL 5-HT2A RECEPTOR ANTAGONISTS AND CENTRAL 5-HT2A RECEPTOR AGONISTS” (priority 2021, published 2024)

Assays:
in vitro = test: in vitro; parameters: fraction unbound at 4 h: dose or concentration left out as unconfirmed; settings: rat, brain homogenate
Procedure: Various putative peripheral 5-HT2A receptor antagonists were tested for binding to rat brain homogenate via equilibrium dialysis, with the results summarized in Table 7.
Method 1. Rat brain homogenate was thawed in a water bath at room temperature and then incubated at 37° C. for 10 min before use. Aliquots of 50 μL of loading matrix containing test compound (2 μM final incubation concentration) or control compound in triplicate were transferred to a Sample Collection Plate. The samples were matched with opposite blank buffer to obtain a final volume of 100 μL with a volume ratio of matrix: Dialysis Buffer of 1:1 (v:v) in each well. The stop solution (200 ng/mL tolbutamide and 200 ng/ml labetalol in ACN) was immediately added to these T0 samples of test compound and control compound. The plate was sealed and shaken at 800 rpm for 10 min. T0 samples were stored at 2-8° C. pending further processing along with other post-dialysis samples. An aliquot of 100 μL of the loading matrix containing test compound or control compound was transferred to the donor side of each dialysis well in triplicate and 100 μL of the Dialysis Buffer was loaded to the receiver side of the well. Then the plate was rotated at approximately 100 rpm in a humidified incubator with 5% CO2 at 37±1° C. for 4 hours. At the end of the dialysis. aliquots of 50 μL from the buffer side and matrix side of the dialysis device were taken into new 96-well plates (Sample Collection Plates). An equal volume of opposite blank matrix (buffer or matrix) in each sample was added to reach a final volume of 100 μL, with a volume ratio of matrix: Dialysis Buffer of 1:1 (v:v) in each well. All samples were further processed by protein precipitation before LC-MS/MS analysis.
Method 2. Aliquots (200 μL) of test compounds and positive controls at […] in rat brain homogenate (triplicates) were added to the rapid equilibrium dialysis (RED) chamber of dialysis inserts. A 350 μL aliquot of dialysis buffer was added to the buffer chamber of the inserts. After sealing the RED device with an adhesive film, dialysis was conducted at 37° C. with shaking at 100 RPM for 4 hours. Following dialysis, an aliquot of 50 μL was removed from each well (brain homogenate and buffer) and diluted with an equal volume of opposite matrix to nullify the matrix effect. Similarly, buffer was added to recovery and stability samples. An aliquot of 100 μL was used for LC-MS/MS analysis following protein precipitation with ACN containing internal standard.

[1] = Metabolic stability in human liver microsomes; type: in vitro ADME; settings: for half-life at 1 μM / microsomal CLint at 1 μM: both sexes, human, microsomes, pH 7.4
Procedure: (§1) HLM Stability. Pooled HLM from adult male and female donors (Corning 452117) were used. Microsomal incubations were carried out in multi-well plates. Liver microsomal incubation medium consisted of PBS (100 mM, pH 7.4), MgCl2 (1 mM), and NADPH (1 mM), with 0.50 mg of liver microsomal protein per mL. Control incubations were performed by replacing the NADPH-cofactor system with PBS. Test compounds (1 μM, final solvent concentration 1.0%) were incubated with microsomes at 37° C. with constant shaking. Six time points over 60 minutes were analyzed, with 60 μL aliquots of the reaction mixture being drawn at each time point. The reaction aliquots were stopped by adding 180 μL of cold (4° C.) acetonitrile containing 200 ng/mL tolbutamide and 200 ng/ml labetalol as internal standards (IS), followed by shaking for 10 minutes, and then protein sedimentation by centrifugation at 4,000 rpm for 20 minutes at 4° C. Supernatant samples (80 μL) were diluted with water (240 μL) and analyzed for parent compound remaining using a fit-for-purpose liquid chromatography-tandem mass spectrometry (LC-MS/MS) method.
(§2) Data Analysis. The elimination constant (kel), half-life (t1/2), and intrinsic clearance (CLint) were determined in a plot of […] versus time, using linear regression analysis.

[2] = Metabolic stability in rat liver microsomes; type: in vitro ADME; settings: for half-life at 1 μM / microsomal CLint at 1 μM: both sexes, rat, microsomes, pH 7.4
Procedure: as §1, with “RLM” for “HLM”, “(Xenotech R1000)” for “(Corning 452117)”
as §2

Rat plasma stability = type: in vitro ADME; settings: 37° C.
Procedure: The results were used to confirm that the plasma protein binding results were not confounded by poor plasma stability.
Method 1. […] Plasma was centrifuged at 4,000 rpm for 5 min and any clots were remove.
Method 2. […]

[3] = HLM, 1 μM, 0.50 mg protein per mL, NADPH
[4] = RLM, 1 μM, 0.50 mg protein per mL, NADPH

Row | Structure (SMILES) | fraction unbound at 4 h, 2 μM (in vitro) | Metabolic stability in HLM [1] | half-life at 1 μM [1, 3] [min] | microsomal CLint at 1 μM [1, 3] [µL/min/mg] | Metabolic stability in RLM [2] | half-life at 1 μM [2, 4] [min] | microsomal CLint at 1 μM [2, 4] [µL/min/mg] | % Remaining (120 minutes), rat plasma (Rat plasma stability; Method 1: 2 μM) [%] | fraction unbound at 4 h (in vitro) | % Remaining (120 minutes), rat plasma (Rat plasma stability; Method 2: 5 μM) [%] | Clint [1, 3] [µL/min/mg] | t1/2 [1, 3] [min] | Clint [2, 4] [µL/min/mg] | t1/2 [2, 4] [min]
1 | CC(CNC(=N)CNc1ccccc1)Oc1cccc(Cl)c1.O=CO (stereo not drawn) [BW501C67, N-(2-(3-chlorophenoxy)propyl)-2-(phenylamino)acetimidamide formate] | 0.003 | poor metabolic stability | 7.2 | 192 | poor metabolic stability | 2.1 | 658 | 100.7 | – | – | – | – | – | –
2 | CC(C)COc1ccc(CNC(=O)N(Cc2ccc(F)cc2)C2CCN(C(=O)CC[C@H](N)C(=O)O)CC2)cc1 [Compound 14a, (S)-2-amino-5-(4-(1-(4-fluorobenzyl)-3-(4-isobutoxybenzyl)ureido)piperidin-1-yl)-5-oxopentanoic acid] | – | highly stable | > 145 | < 9.6 | highly stable | > 145 | < 9.6 | – | 0.078 | 97 | – | – | – | –
3 | COc1cccc(CCc2ccccc2OCC(CN(C)C)OC(=O)CCC(=O)O)c1 (stereo not drawn) [sarpogrelate] | – | – | – | – | – | – | – | – | 0.054 | 67 | – | – | – | –
4 | COc1cccc(C(=O)Nc2ccc(OCCN3CCOCC3)c(-c3ccnn3C)c2)c1 [temanogrel] | – | – | – | – | – | – | – | – | 0.108 | 95 | – | – | – | –
5 | COc1cccc(OC(C)CNC(=N)Cc2cccc(C)c2)c1.O=C(O)C(F)(F)F (stereo not drawn) [xylamidine, N-(2-(3-methoxyphenoxy)propyl)-2-(m-tolyl) acetimidamide trifluoroacetate] | – | poor metabolic stability | – | – | poor metabolic stability | – | – | – | – | 94 | 448.6 | 3.1 | 709.1 | 2.0
